The record followed here is PubChem BioAssay (NCI).

The structures appear in SMILES notation. Values joined by “and” are separate entries in the source; they are usually repeats but may differ in a detail not shown here. Equal entries are not always repeated.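 1) Cells in 96-well plates. 2) Compound, 48 h, 5 concentrations. 3) Linear interpolation between surrounding doses. 4) Unreached endpoint = highest concentration. GI50 marks 50% less growth. TGI: total growth inhibition.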

Common to all, as to experiment: NCI-60 cell line screen, 48 h
Assay [1] relates to A498 renal.
Assay [2] has as its system COLO 205 colon.
For assay [3], the system named is HCT-116 colon.
For assay [4], the system named is NCI-H226 lung.
The subject of assay [5] is OVCAR-4 ovarian.
For assay [6], the system named is OVCAR-8 ovarian.
For assay [7], the system named is SK-MEL-2 melanoma.
Assay [8] deals with SNB-19 CNS.
In assay [9] the test system is TK-10 renal.
Assay [10] relates to UACC-62 melanoma.

Take `CN(C)CCCSc1ccccc1NC1=C(Cl)C(=O)C(Nc2ccccc2SCCCN(C)C)=C(Cl)C1=O`: the GI50 in assay [1] is 8.36 µM; in assay [2], 2.08 µM; in assay [3] it was 1.52 µM; in assay [4], 2.21 µM; in assay [5] it was 1.29 µM; in [6] it was 2.03 µM. The GI50 was 2.3 µM in assay [7], 3.42 µM in assay [8], 2.22 µM in [9] and 1.81 µM in assay [10]. The TGI turned out to be 20.6 µM in assay [1]; 4.03 µM in assay [2]; 2.93 µM in [3]; 4.32 µM in assay [4]; 2.56 µM in [5]; 3.99 µM in [6]. Moreover, the TGI in assay [7] is 5.48 µM; in assay [8], 11.4 µM; in assay [9], 3.7 µM; in assay [10], 3.51 µM.
As to `NS(=O)(=O)c1ccc(Nc2c3ccccc3nc3c(C(=O)N4CCN(CCO)CC4)cccc23)cc1`, the TGI in assay [1], in assay [2], in assay [3], in assay [4], in assay [5] and in [6] was greater than 100 µM in each case. For the same compound, the TGI in [7], in assay [8], in assay [9] and in assay [10] was greater than 100 µM each time.
In the case of `COCCOC1=CC(=O)c2c(O)ccc(O)c2C1=O`, the GI50 is 2.16 µM in [1]; 0.32 µM in [2]; 1.29 µM in assay [3]; 1.61 µM in assay [5]; 1.86 µM in assay [7]; 2.9 µM in assay [9]. In addition, the GI50 in assay [10] is 1.62 µM. In addition, the TGI in assay [1] was 3.18 µM and 3.92 µM; in assay [2], 0.661 µM and 1.2 µM; in [3], 1 µM and 2.64 µM; in assay [4], 4.01 µM and 4.16 µM; in [5], 3.3 µM and 2.97 µM; in assay [6], 3.49 µM. In addition, the TGI in [7] was 2.58 µM and 3.82 µM; in assay [8] it was 3.82 µM; in assay [9] it was 3.57 µM and 5.78 µM; in [10] it was 3.74 µM and 3.58 µM.
For `Cc1ccc(C=C2C(Cl)=C(Cl)C(Cl)=C2Cl)cc1`, the GI50 in assay [1] was 1.43 µM; in assay [2], 0.737 µM; in [3], 0.358 µM; in assay [4], 1.49 µM; in assay [5], 1 µM; in [6] it was 0.418 µM. For the same compound, the GI50 was 1.9 µM in assay [7], 1.33 µM in assay [8], 0.972 µM in assay [9] and 0.784 µM in assay [10]. Further, the TGI in [1] is 2.91 µM; in [2], 2.09 µM; in [3] it was 1.04 µM; in assay [4], 3.22 µM; in assay [5] it was 2.75 µM; in [6] it was 9.45 µM. For the same compound, the TGI in assay [7] turned out to be 4.87 µM; in assay [8], 2.68 µM; in [9], 2.55 µM; in assay [10], 2.74 µM.
Turning to `C#CC(=O)Nc1cccc2c1cc(C)n2-c1nc2c(c(NCc3ccccc3)n1)CCCC2`, the GI50 in [1] is 1.75 µM; in assay [2], 0.267 µM; in [3] it was 0.174 µM; in assay [4], 0.25 µM; in [5], 0.208 µM; in [6] it was 0.136 µM. Further, the GI50 in assay [7] was 1.25 µM; in assay [8], 0.845 µM; in [9], 1.66 µM; in [10], 0.165 µM. In addition, the TGI in assay [1] was found to be 3.74 µM; in assay [2] it was 0.803 µM; in assay [3] it was 0.415 µM; in assay [4], 0.644 µM; in [5] it was 0.491 µM; in assay [6], 0.779 µM. Also, the TGI in [7] turned out to be 2.92 µM; in assay [8], 2.66 µM; in [9], 3.09 µM; in [10] it was 0.351 µM.
`N#CC(C#N)=C1CCOc2ccc(F)cc21`: the GI50 in assay [1] is 23 µM; in [2], 21.7 µM; in assay [3], 8.86 µM; in assay [4] it was 18 µM; in assay [5], 14.6 µM; in [6] it was 19 µM. Further, the GI50 in assay [7] was greater than 100 µM; in assay [8] it was 27.3 µM; in [9], 14.1 µM; in assay [10] it was 11.3 µM. Also, the TGI is 49.9 µM in [1]; 67.6 µM in assay [2]; 21 µM in [3]; 53.7 µM in assay [4]; 27.8 µM in [5]; 43.7 µM in [6]. Also, the TGI in assay [7] was greater than 100 µM; in assay [8] it was 96.1 µM; in [9], 33.3 µM; in [10], 28.9 µM.
For the compound `COC(=O)c1cc2oc(/C=C3/SC(=S)N(N)C3=O)cc2n1Cc1ccccc1`, the GI50 is 2.16 µM in [1]; 5.42 µM in assay [2]; 5.73 µM in [3]; 13.5 µM in assay [4]; 4.68 µM in [5]; 3.24 µM in assay [6]. For the same compound, the GI50 in [7] is 6.82 µM; in assay [8], 5.79 µM; in assay [9], 3.2 µM; in assay [10], 10.6 µM. Moreover, the TGI in [1] amounted to 6.48 µM; in assay [2] it was 20.7 µM; in [3] it was 18.9 µM; in [4], 26.8 µM; in assay [5], 42.8 µM; in [6], 22.7 µM. Besides, the TGI in [7] came out at 18.7 µM; in [8], 35.2 µM; in [9] it was 11.8 µM; in assay [10], 36.1 µM.
In the case of `C#Cc1cccc(Nc2ncnc3ccc(OCCCCNCCS(C)(=O)=O)cc23)c1`, the GI50 is 3.18 µM in assay [1]; 5.58 µM in [2]; 6.81 µM in assay [3]; greater than 19.6 µM in [4]; 9.55 µM in assay [5]; 7.56 µM in [6]. Moreover, the GI50 in assay [7] is 7.75 µM; in assay [8], 15.2 µM; in assay [9] it was 0.238 µM; in assay [10], 4.82 µM. For the same compound, the TGI in assay [1] is 9.75 µM; in [2], 12.3 µM; in assay [3], greater than 18.7 µM; in assay [4] it was greater than 25 µM; in assay [5], greater than 25 µM; in assay [6], greater than 25 µM. The TGI in assay [7] was 17.8 µM; in [8] it was greater than 25 µM; in assay [9], 6.27 µM; in [10], 9.1 µM.
As for `O=[N+]([O-])c1ccc(C(Cl)C(Cl)c2ccc(C(Cl)C(Cl)c3ccc([N+](=O)[O-])cc3[N+](=O)[O-])cc2)c([N+](=O)[O-])c1` (stereo unspecified), the GI50 was 1.05 µM in assay [1]; 0.23 µM in assay [4]; 0.326 µM in assay [5]; 0.282 µM in assay [6]; 0.231 µM in assay [7]; 0.536 µM in assay [9]. In assay [10], the GI50 is 0.247 µM. In addition, the TGI in assay [1] is 11.1 µM and 2.96 µM; in assay [2], 1.99 µM; in assay [3], 1.75 µM; in [5] it was 8.21 µM and 3.52 µM; in [6] it was 2.13 µM and 0.918 µM; in [7], 3.27 µM and 0.472 µM. In addition, the TGI in assay [8] is 18.1 µM; in assay [9], 14.5 µM and 2.5 µM; in assay [10], 2.37 µM and 0.623 µM.
Take `COc1c(/C=C/C=O)cc2c(c1OC)OCO2`: the TGI in [1] is 3.15 µM; in [2], greater than 100 µM; in assay [3] it was greater than 100 µM; in assay [4], 70 µM; in assay [5], 85.6 µM; in [6], greater than 100 µM. Further, the TGI in assay [7] is 57.4 µM; in assay [8], 44.8 µM; in [9], greater than 100 µM; in assay [10], 57 µM.
Regarding `C=CC(=O)N1C[C@@H]2CCOc3c(Cl)c(-c4c(O)cccc4F)c(F)c4ncnc(c34)N2C[C@H]1C`, the GI50 was 13.6 µM in assay [1]; 17.6 µM in assay [2]; 11.2 µM in assay [3]; 13.1 µM in [4]; 9.18 µM in [5]; 16.5 µM in assay [6]. For the same compound, the GI50 in assay [7] was 14 µM; in assay [8], 14.6 µM; in assay [9] it was 16.1 µM; in [10], 4.17 µM. Besides, the TGI in assay [1] is 28.1 µM; in assay [2], 35.9 µM; in assay [3], 24.5 µM; in assay [4] it was 45.2 µM; in assay [5] it was 72 µM; in assay [6], 56.6 µM. Besides, the TGI amounted to 28.7 µM in assay [7], 28 µM in [8], 33.3 µM in assay [9] and 18.8 µM in assay [10].
In the case of `O=c1cnnc(N/N=C/c2ccccc2O)[nH]1`, the GI50 in assay [1] is 1.81 µM; in [2] it was 0.33 µM; in assay [3], 0.0337 µM; in [4], 1.63 µM; in [5] it was 0.264 µM; in [6], 1.81 µM. Also, the GI50 in assay [7] is 21 µM; in [8] it was 6.41 µM; in assay [9], 8.26 µM; in assay [10], 1.31 µM. Besides, the TGI in assay [1] is 23.3 µM; in [2], greater than 100 µM; in [3] it was greater than 100 µM; in [4] it was 51.7 µM; in [5], greater than 23.8 µM; in assay [6], greater than 100 µM. Moreover, the TGI is greater than 100 µM in [7], greater than 100 µM in assay [8], greater than 100 µM in [9] and 7.88 µM in assay [10].
In the case of `COc1ccc(NC2=C(I)C(=O)c3ncccc3C2=O)cc1`, the GI50 is 1.74 µM in assay [1]; 1.68 µM in assay [2]; 0.494 µM in assay [3]; 1.42 µM in [4]; 1.12 µM in assay [5]; 1.84 µM in assay [6]. In addition, the GI50 in [7] is 1.49 µM; in [8] it was 1.18 µM; in assay [9] it was 2.14 µM; in [10] it was 1.66 µM. For the same compound, the TGI amounted to 3.28 µM in assay [1]; 3.47 µM in assay [2]; 2.51 µM in [3]; 2.83 µM in assay [4]; 2.35 µM in assay [5]; 5.79 µM in assay [6]. Moreover, the TGI is 3.18 µM in [7], 3.29 µM in assay [8], 3.96 µM in assay [9] and 3.4 µM in assay [10].
Consider `CC(C)(C)c1cc(CCCCCCCC2(CCCCCCCc3cc(C(C)(C)C)cc(C(C)(C)C)c3)OC(COCCOCCCCCC#N)C(COCCOCCCCCC#N)O2)cc(C(C)(C)C)c1` (stereo unspecified), for which the TGI in assay [1], in [2], in assay [3], in assay [4], in assay [5] and in assay [6] was greater than 100 µM in each case. Also, the TGI in assay [7], in assay [8], in assay [9] and in [10] was greater than 100 µM each time.
As to `O=C(c1ccccc1Cl)n1oc2ccccc2c1=O`, the TGI in assay [1], in assay [2], in [3], in assay [4], in assay [5] and in assay [6] was greater than 100 µM throughout. Moreover, the TGI in [7], in assay [8], in assay [9] and in assay [10] was greater than 100 µM throughout.
Consider `CC1=C(C)C(=O)O[C@@H]([C@](C)(O)[C@]2(O)CC[C@@]3(O)[C@@H]4C[C@H](O)[C@]5(O)[C@@H](O)C=CC(=O)[C@]5(C)[C@H]4CC[C@]23C)C1`, for which the TGI in assay [1], in assay [2], in [3], in assay [4], in assay [5] and in [6] was greater than 100 µM in each case. The TGI in assay [7], in [8], in assay [9] and in assay [10] was greater than 100 µM throughout.
Regarding `O=C(O)c1cc(=O)cc(C(=O)O)o1`, the GI50 in [1], in assay [2], in assay [3], in [4], in assay [5] and in assay [7] was greater than 100 µM each time. Moreover, the GI50 in [8], in assay [9] and in assay [10] was greater than 100 µM in each case. In addition, the TGI in assay [1], in [2], in [3], in assay [4], in assay [5] and in assay [7] was greater than 100 µM in each case. Further, the TGI in [8], in assay [9] and in [10] was greater than 100 µM in each case.
